{"source": "patent US8476197B2", "about": "“Aminopropenoates as fungicides” (priority 2009, dated 2013)", "note": "Marks after values point to notes of the source that are not given here."}
{"conditions": "pH 2.3"}
{"smiles": "CCOC(=O)C(C#N)=C(Nc1ccccc1SC)c1cccnc1OC", "note": "[Compound 522]", "Log P": "3.32^[c]; 3.32^[b]"}
{"smiles": "CCOC(=O)C(C#N)=C(Nc1ccccc1OC(F)(F)F)c1cccnc1Cl", "note": "[Compound 529]", "Log P": 3.52}
{"conditions": "pH 2.7"}
{"smiles": "CCOC(=O)C(C#N)=C(Nc1ccccc1SC)c1ccsc1I", "note": "[Compound 436]", "Log P": "3.94^[a]"}
{"smiles": "CCOC(=O)C(C#N)=C(NC(C)CCc1ccccc1)c1sccc1C(F)(F)F", "note": "(stereo not shown) [Compound 437]", "Log P": "4.56^[a]"}
{"smiles": "CCOC(=O)C(C#N)=C(Nc1ccc(Cl)cc1)c1sccc1Br", "note": "[Compound 457]", "Log P": "4.11^[a]"}
{"smiles": "CCOC(=O)C(C#N)=C(NCc1ccccc1SC)c1sccc1Br", "note": "[Compound 458]", "Log P": "4.01^[a]"}
{"smiles": "CCOC(=O)C(C#N)=C(Nc1cccc(Cl)c1)c1sccc1Br", "note": "[Compound 459]", "Log P": "4.09^[a]"}
{"smiles": "CCOC(=O)C(C#N)=C(Nc1ccccc1OC(C)C)c1sccc1C(F)(F)F", "note": "[Compound 460]", "Log P": "4.54^[a]"}
{"smiles": "CCOC(=O)C(C#N)=C(Nc1ccc(OC(F)F)cc1)c1sccc1C(F)(F)F", "note": "[Compound 461]", "Log P": "3.78^[a]"}
{"smiles": "CCOC(=O)C(C#N)=C(Nc1ccc(SC)cc1)c1sccc1C(F)(F)F", "note": "[Compound 462]", "Log P": "4.09^[a]"}
{"smiles": "CCOC(=O)C(C#N)=C(NCc1ccccc1SC)c1sccc1C(F)(F)F", "note": "[Compound 463]", "Log P": "4.09^[a]"}
{"smiles": "CCOC(=O)C(C#N)=C(NCc1ccccc1SC)c1sc(C)nc1C(F)(F)F", "note": "[Compound 464]", "Log P": "3.87^[a]"}
{"smiles": "COC(=O)C(C#N)=C(Nc1ccc2ncsc2c1)c1sc(C)nc1C(F)(F)F", "note": "[Compound 465]", "Log P": "2.64^[a]"}
{"smiles": "COC(=O)C(C#N)=C(NCc1ccccc1SC)c1sc(C)nc1C(F)(F)F", "note": "[Compound 466]", "Log P": "3.55^[a]"}
{"smiles": "CCOC(=O)C(C#N)=C(Nc1ccccc1OC(C)C)c1sccc1Br", "note": "[Compound 467]", "Log P": "4.46^[a]"}
{"smiles": "CCOC(=O)C(C#N)=C(Nc1ccc(OC(F)F)cc1)c1sccc1Br", "note": "[Compound 468]", "Log P": "3.73^[a]"}
{"smiles": "CCOC(=O)C(C#N)=C(Nc1ccc2ncsc2c1)c1sccc1Br", "note": "[Compound 469]", "Log P": "3.09^[a]"}
{"smiles": "CCOC(=O)C(C#N)=C(Nc1ccc(SC)cc1)c1sccc1Br", "note": "[Compound 470]", "Log P": "4.01^[a]"}
{"smiles": "CCOC(=O)C(C#N)=C(Nc1ccccc1OC(C)C)c1cn(C)nc1C(F)F", "note": "[Compound 471]", "Log P": "3.53^[a]"}
{"smiles": "CCOC(=O)C(C#N)=C(Nc1ccc(OC(F)F)cc1)c1cn(C)nc1C(F)F", "note": "[Compound 472]", "Log P": "3.04^[a]"}
{"smiles": "CCOC(=O)C(C#N)=C(Nc1ccc2ncsc2c1)c1cn(C)nc1C(F)F", "note": "[Compound 473]", "Log P": "2.44^[a]"}
{"smiles": "CCOC(=O)C(C#N)=C(Nc1ccc(SC)cc1)c1cn(C)nc1C(F)F", "note": "[Compound 474]", "Log P": "3.19^[a]"}
{"smiles": "CCOC(=O)C(C#N)=C(Nc1ccc(Cl)cc1)c1cn(C)nc1C(F)F", "note": "[Compound 475]", "Log P": "3.23^[a]"}
{"smiles": "CCOC(=O)C(C#N)=C(NCc1ccccc1SC)c1cn(C)nc1C(F)F", "note": "[Compound 476]", "Log P": "3.17^[a]"}
{"smiles": "CCOC(=O)C(C#N)=C(Nc1cccc(Cl)c1)c1cn(C)nc1C(F)F", "note": "[Compound 477]", "Log P": "3.21^[a]"}
{"smiles": "CCOC(=O)C(C#N)=C(Nc1ccc2ncsc2c1)c1sc(C)nc1C(F)(F)F", "note": "[Compound 479]", "Log P": "2.98^[a]"}
{"smiles": "CCOC(=O)C(C#N)=C(Nc1ccc(SC)cc1)c1sc(C)nc1C(F)(F)F", "note": "[Compound 480]", "Log P": "3.87^[a]"}
{"smiles": "CCOC(=O)C(C#N)=C(Nc1ccc(C(C)C)cc1)c1sccc1C(F)(F)F", "note": "[Compound 481]", "Log P": "4.75^[a]"}
{"smiles": "CCOC(=O)C(C#N)=C(Nc1cccc(SC)c1)c1sccc1C(F)(F)F", "note": "[Compound 482]", "Log P": "4.04^[a]"}
{"smiles": "CCOC(=O)C(C#N)=C(Nc1ccc(OC)cc1)c1sccc1C(F)(F)F", "note": "[Compound 483]", "Log P": "3.62^[a]"}
{"smiles": "CCOC(=O)C(C#N)=C(Nc1ccc(N(C)C)cc1)c1sccc1C(F)(F)F", "note": "[Compound 484]", "Log P": "3.89^[a]"}
{"smiles": "COC(=O)C(C#N)=C(Nc1ccc(OC)cc1)c1sc(C)nc1C(F)(F)F", "note": "[Compound 485]", "Log P": "3.06^[a]"}
{"smiles": "COC(=O)C(C#N)=C(Nc1ccc(N(C)C)cc1)c1sc(C)nc1C(F)(F)F", "note": "[Compound 486]", "Log P": "3.31^[a]"}
{"smiles": "COC(=O)C(C#N)=C(Nc1ccc(C(C)C)cc1)c1sc(C)nc1C(F)(F)F", "note": "[Compound 487]", "Log P": "4.14^[a]"}
{"smiles": "CCOC(=O)C(C#N)=C(Nc1ccc(OC)cc1)c1sccc1Br", "note": "[Compound 488]", "Log P": "3.55^[a]"}
{"smiles": "CCOC(=O)C(C#N)=C(Nc1ccc(N(C)C)cc1)c1sccc1Br", "note": "[Compound 489]", "Log P": "3.76^[a]"}
{"smiles": "CCOC(=O)C(C#N)=C(Nc1ccc(C(C)C)cc1)c1sccc1Br", "note": "[Compound 490]", "Log P": "4.73^[a]"}
{"smiles": "CCOC(=O)C(C#N)=C(Nc1cccc(SC)c1)c1sccc1Br", "note": "[Compound 491]", "Log P": "3.96^[a]"}
{"smiles": "CCOC(=O)C(C#N)=C(Nc1ccc(OC)cc1)c1sc(C)nc1C(F)(F)F", "note": "[Compound 492]", "Log P": "3.44^[a]"}
{"smiles": "CCOC(=O)C(C#N)=C(Nc1ccc(N(C)C)cc1)c1sc(C)nc1C(F)(F)F", "note": "[Compound 493]", "Log P": "3.71^[a]"}
{"smiles": "CCOC(=O)C(C#N)=C(Nc1ccc(C(C)C)cc1)c1sc(C)nc1C(F)(F)F", "note": "[Compound 494]", "Log P": "4.54^[a]"}
{"smiles": "CCOC(=O)C(C#N)=C(Nc1ccc(OC)cc1)c1cn(C)nc1C(F)F", "note": "[Compound 495]", "Log P": "2.77^[a]"}
{"smiles": "CCOC(=O)C(C#N)=C(Nc1ccc(N(C)C)cc1)c1cn(C)nc1C(F)F", "note": "[Compound 496]", "Log P": "2.71^[a]"}
{"smiles": "CCOC(=O)C(C#N)=C(Nc1ccc(C(C)C)cc1)c1cn(C)nc1C(F)F", "note": "[Compound 497]", "Log P": "3.76^[a]"}
{"smiles": "CCOC(=O)C(C#N)=C(Nc1cccc(SC)c1)c1cn(C)nc1C(F)F", "note": "[Compound 498]", "Log P": "3.17^[a]"}
{"smiles": "CCOC(=O)C(C#N)=C(Nc1ccccc1SC)c1cc(Cl)sc1Cl", "note": "[Compound 500]", "Log P": "4.59^[a]"}
{"smiles": "CCOC(=O)C(C#N)=C(NC1(c2c(F)cccc2F)CC1)c1cc(Cl)sc1Cl", "note": "[Compound 501]", "Log P": "4.62^[a]"}
{"smiles": "CCOC(=O)C(C#N)=C(Nc1ccccc1SC)c1nc(Cl)ccc1Cl", "note": "[Compound 502]", "Log P": "3.99^[a]"}
{"smiles": "CCOC(=O)C(C#N)=C(Nc1ccccc1SC)c1ncc(Cl)cc1Cl", "note": "[Compound 503]", "Log P": "4.09^[a]"}
{"smiles": "COC(=O)C(C#N)=C(Nc1cccc(SC)c1)c1sc(C)nc1C(F)(F)F", "note": "[Compound 504]", "Log P": "3.53^[a]"}
{"smiles": "CCOC(=O)C(C#N)=C(Nc1cccc(SC)c1)c1sc(C)nc1C(F)(F)F", "note": "[Compound 505]", "Log P": "3.89^[a]"}
{"smiles": "CCOC(=O)C(C#N)=C(Nc1ccccc1SC)c1cn(C)nc1OC", "note": "[Compound 507]", "Log P": "3.06^[a]"}
{"smiles": "CCOC(=O)C(C#N)=C(NC1(c2c(F)cccc2F)CC1)c1cn(C)nc1OC", "note": "[Compound 508]", "Log P": "3.02^[a]"}
{"smiles": "CCOC(=O)C(C#N)=C(Nc1ccc2ncsc2c1)c1sccc1C(F)(F)F", "note": "[Compound 509]", "Log P": "3.21^[a]"}
{"smiles": "CCOC(=O)C(C#N)=C(Nc1ccc(Cl)cc1)c1sccc1C(F)(F)F", "note": "[Compound 510]", "Log P": "4.14^[a]"}
{"smiles": "CCOC(=O)C(C#N)=C(Nc1cccc(Cl)c1)c1sccc1C(F)(F)F", "note": "[Compound 511]", "Log P": 4.14}
{"smiles": "CCOC(=O)C(C#N)=C(Nc1ccc(Cl)cc1)c1sc(C)nc1C(F)(F)F", "note": "[Compound 512]", "Log P": "3.92^[a]"}
{"smiles": "CCOC(=O)C(C#N)=C(Nc1cccc(Cl)c1)c1sc(C)nc1C(F)(F)F", "note": "[Compound 513]", "Log P": "3.89^[a]"}
{"smiles": "COC(=O)C(C#N)=C(Nc1ccccc1OC(C)C)c1sc(C)nc1C(F)(F)F", "note": "[Compound 514]", "Log P": "3.96^[a]"}
{"smiles": "COC(=O)C(C#N)=C(Nc1ccc(OC(F)F)cc1)c1sc(C)nc1C(F)(F)F", "note": "[Compound 515]", "Log P": "3.31^[a]"}
{"smiles": "COC(=O)C(C#N)=C(Nc1ccc(SC)cc1)c1sc(C)nc1C(F)(F)F", "note": "[Compound 516]", "Log P": "3.53^[a]"}
{"smiles": "COC(=O)C(C#N)=C(Nc1ccc(Cl)cc1)c1sc(C)nc1C(F)(F)F", "note": "[Compound 517]", "Log P": "3.55^[a]"}
{"smiles": "COC(=O)C(C#N)=C(Nc1cccc(Cl)c1)c1sc(C)nc1C(F)(F)F", "note": "[Compound 518]", "Log P": "3.53^[a]"}
{"smiles": "CCOC(=O)C(C#N)=C(Nc1ccccc1OC(C)C)c1sc(C)nc1C(F)(F)F", "note": "[Compound 519]", "Log P": "4.36^[a]"}
{"smiles": "CCOC(=O)C(C#N)=C(Nc1ccccc1OC(C)C)c1ccsc1Br", "note": "[Compound 523]", "Log P": "4.46^[a]"}
{"smiles": "CCOC(=O)C(C#N)=C(Nc1ccc(SC)cc1)c1ccsc1Br", "note": "[Compound 524]", "Log P": "4.01^[a]"}
{"smiles": "CCOC(=O)C(C#N)=C(Nc1ccc(OC)cc1)c1ccsc1Br", "note": "[Compound 525]", "Log P": "3.6^[a]"}
{"smiles": "CCOC(=O)C(C#N)=C(Nc1ccccc1SC)c1sc(Cl)nc1Cl", "note": "[Compound 527]", "Log P": "4.14^[a]"}
{"smiles": "CCOC(=O)C(C#N)=C(NC1(c2c(F)cccc2F)CC1)c1sc(Cl)nc1Cl", "note": "[Compound 528]", "Log P": "4.14^[a]"}
{"smiles": "CCOC(=O)C(C#N)=C(NC1(c2c(F)cccc2F)CC1)c1cn(C)nc1C(F)(F)F", "note": "[Compound 530]", "Log P": "3.48^[a]"}
{"smiles": "CCOC(=O)C(C#N)=C(Nc1ccc(OC(F)F)cc1)c1ccsc1Br", "note": "[Compound 532]", "Log P": "3.73^[a]"}
{"smiles": "CCOC(=O)C(C#N)=C(Nc1ccc2ncsc2c1)c1ccsc1Br", "note": "[Compound 533]", "Log P": "3.11^[a]"}
{"smiles": "CCOC(=O)C(C#N)=C(Nc1ccc(Cl)cc1)c1ccsc1Br", "note": "[Compound 534]", "Log P": "4.11^[a]"}
{"smiles": "CCOC(=O)C(C#N)=C(NCc1ccccc1SC)c1ccsc1Br", "note": "[Compound 535]", "Log P": "4.01^[a]"}
{"conditions": "pH 7.5"}
{"smiles": "CCOC(=O)C(C#N)=C(Nc1ccccc1SC)c1cccnc1OC", "note": "[Compound 522]", "Log P": "3.32^[c]; 3.32^[b]"}
{"smiles": "CCOC(=O)C(C#N)=C(Nc1ccccc1OC(F)(F)F)c1cccnc1Cl", "note": "[Compound 529]", "Log P": 3.46}
